Source: US10213428B2, “(4-((3R,4R)-3-methoxytetrahydro-pyran-4-ylamino)piperidin-1-yl)(5-methyl-6-(((2R,6S)-6-(p-tolyl)tetrahydro-2H-pyran-2-yl)methylamino)pyrimidin-4-yl)methanone citrate” (Centrexion Therapeutics Corporation, priority 2015, dated 2019)

Tests used:
hERG = target: T1, hERG (Homo sapiens, UniProt Q12809); experiment: hERG-channel assay (whole-cell patch clamp, HEK293 cells transfected with hERG cDNA); type: cell-based; conditions: human, HEK293 cells stably transfected with hERG cDNA, pH 7.4, read-out: inhibition of hERG-mediated potassium current
T1 construct: expressed in transfected cells
T1 sequence (Q12809 whole entry): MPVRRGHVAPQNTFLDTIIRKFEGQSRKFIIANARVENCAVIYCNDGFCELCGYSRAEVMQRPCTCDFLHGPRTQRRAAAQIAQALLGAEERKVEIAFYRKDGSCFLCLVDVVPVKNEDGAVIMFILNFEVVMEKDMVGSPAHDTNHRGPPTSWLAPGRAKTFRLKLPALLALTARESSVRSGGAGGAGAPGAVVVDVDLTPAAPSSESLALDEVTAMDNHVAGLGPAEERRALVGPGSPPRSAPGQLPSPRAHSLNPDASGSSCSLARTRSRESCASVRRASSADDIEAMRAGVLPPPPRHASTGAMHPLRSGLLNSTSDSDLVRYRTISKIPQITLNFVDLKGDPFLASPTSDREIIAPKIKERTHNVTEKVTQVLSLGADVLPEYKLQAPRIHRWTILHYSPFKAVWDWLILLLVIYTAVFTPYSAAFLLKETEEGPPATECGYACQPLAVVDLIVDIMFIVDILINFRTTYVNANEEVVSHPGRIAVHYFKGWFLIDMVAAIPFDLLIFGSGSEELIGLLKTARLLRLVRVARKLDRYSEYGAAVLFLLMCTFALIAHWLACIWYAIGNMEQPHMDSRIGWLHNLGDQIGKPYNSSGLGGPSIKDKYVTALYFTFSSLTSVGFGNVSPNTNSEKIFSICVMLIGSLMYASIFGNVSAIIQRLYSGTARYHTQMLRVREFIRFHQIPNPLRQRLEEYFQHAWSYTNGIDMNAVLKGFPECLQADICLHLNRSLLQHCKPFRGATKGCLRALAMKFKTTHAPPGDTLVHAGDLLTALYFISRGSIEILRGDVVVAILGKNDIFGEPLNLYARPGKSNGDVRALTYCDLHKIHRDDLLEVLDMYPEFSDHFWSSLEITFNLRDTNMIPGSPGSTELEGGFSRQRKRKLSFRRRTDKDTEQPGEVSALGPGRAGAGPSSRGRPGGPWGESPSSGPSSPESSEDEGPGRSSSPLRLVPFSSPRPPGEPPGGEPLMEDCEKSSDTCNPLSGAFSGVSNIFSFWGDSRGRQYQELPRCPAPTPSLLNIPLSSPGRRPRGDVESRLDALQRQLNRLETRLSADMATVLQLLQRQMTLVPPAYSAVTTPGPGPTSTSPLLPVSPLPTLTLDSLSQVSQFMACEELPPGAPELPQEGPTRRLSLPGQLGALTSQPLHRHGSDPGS
Text: (§1) HEK (human embryonic kidney) 293 cells were stably transfected with hERG cDNA. Cells determined for use in patch clamp experiments were cultivated without antibiotic.
(§2) Cells were superfused with a bath solution containing (mM): NaCl (137), KCl (4.0), MgCl2 (1.0), CaCl2 (1.8), Glucose (10), HEPES (10), pH 7.4 with NaOH. Patch pipettes were made from borosilicate glass tubing (Hilgenberg, Malsfeld, Germany) using a horizontal puller (DMZ-Universal Puller, Zeitz-Instrumente, Martinsried, Germany) and filled with pipette solution containing (mM): K-aspartate (130), MgCl2 (5.0), EGTA (5.0), K2ATP (4.0), HEPES (10.0), pH 7.2 with KOH. Resistance of the microelectrodes was in the range between 2 and 5 MΩ.
(§3) Membrane currents were recorded using an EPC-10 patch clamp amplifier (HEKA Electronics, Lambrecht, Germany) and PatchMaster software (HEKA). The current signals were Bessel filtered at 2.5 kHz before being digitized at 5 kHz.
(§4) hERG-mediated membrane currents were recorded at typically 28° C., using the whole-cell configuration of the patch-clamp technique. […] During each inter-pulse interval 4 pulses scaled down by a factor of 0.2 were recorded for a P/n leak subtraction procedure. […] The remaining uncompensated Rs was recorded as well as actual temperature and holding current.
(§5) The concentrations of the test item were applied sequentially on each of the different cells investigated. A steady state level of baseline current was measured for at least 90 s prior to the application of the first test article concentration. […]
(§6) Peak current amplitudes were measured 3 ms after the ramp to +40 mV. […] Residual currents (I/I0) were calculated for each cell as the fraction of actual average peak current and average baseline peak current. Current inhibition was expressed as (1−I/I0)*100%. […]

[1] = target: T2, hERG-mediated potassium current (Homo sapiens, UniProt Q12809); experiment: as above; type: cell-based; conditions: HEK293 cells, whole-cell patch clamp; read-out: IC50, inhibition of hERG-mediated potassium current
T2 construct: expressed in transfected cells
T2 sequence (Q12809 whole entry): as above
Text: as §1, §2, §3, §4, §5, §6

[2] = Intravenous pharmacokinetics in rat; type: in vivo, Wistar(Han) rats; conditions: IV dose 5 μmol/kg, mean values
Text: The pharmacokinetics of the test compound following single intravenous (IV) or oral (PO) doses were examined in • female BALB/c mice (average weight: 25 g) • male Wistar(Han) rats (average weight: 260 g) • male and female Göttingen Minipigs (average weight: 24 kg) • male beagle dogs (average weight: 15 kg) All non-rodent species were fasted overnight prior to dosing, while mice and rats had food and water available ad libitum. The p.o. dose of the compound was usually administered as suspension in 0.5% Natrosol or as a 0.5% Natrosol/0.015% Tween 80 suspension. For i.v. dosing purposes, the doses were applied as a solution in 0.9% NaCL, or as a solution containing 9.1% HP-beta Cyclodextrin in water.
Blood was collected by venous sampling and soaking of the blood in EDTA coated tubes. Samples were collected for up to 48 h after administration of the test compound. Plasma was then separated by centrifugation (5 min by approximately 9000 g at 4° C.). For determination of the test compound, plasma was transferred into PCR plates. All samples were stored at approximately −20° C. until bioanalytics. The test compound concentrations in plasma were determined by HPLC MS/MS. The lower limit of quantification was between 0.5 nmol/L and 1 nmol/L.

[3] = In vitro plasma protein binding (equilibrium dialysis), minipig; type: in vitro ADME; conditions: pH 7.4, dialysis 2 hours at 37° C., read-out: Fraction bound (converted)
Experimental: (§7) Dianorm Teflon dialysis cells (micro 0.2) are used. Each cell consists of a donor (i.e., buffer chamber) and an acceptor chamber (i.e., plasma chamber), separated by an ultrathin semipermeable membrane with a 5 kDa molecular weight cutoff. Stock solutions for each test compound are prepared in DMSO at 1 mM and diluted to a final concentration of 1.0 μM. Aliquots of 200 μL dialysis buffer (100 mM potassium phosphate, pH 7.4) are dispensed into the buffer chamber. Aliquots of 200 μL test compound dialysis solution are dispensed into the plasma chambers. Incubation is carried out for 2 hours under rotation at 37° C. Then, the dialysate is transferred into reaction tubes. The tubes for the buffer fraction contain 0.2 mL acetonitril/water (80/20 volume/volume). Aliquots of 25 μL of the plasma dialysate are transferred into deep well plates and mixed with 25 μL acetonitril/water (80/20 volume/volume), 25 μL buffer, 25 μL calibration solution and 25 μL Internal Standard solution. Protein precipitation is done by adding 200 μL acetonitrile. Aliquots of 50 μL of the buffer dialysate are transferred into deep well plates and mixed with 25 μL blank plasma, 25 μL Internal Standard solution and 200 μL acetonitril. Percent bound is calculated with the formula: % bound=(plasma concentration−buffer concentration/plasma concentration)×100.

plasma protein = experiment: as above; type: in vitro ADME; conditions: 1.0 μM, dialysis 2 hours at 37° C.
Experimental: as §7

U937 cells = experiment: In vitro phospholipidosis assay (Nile Red staining, flow cytometry); conditions: 48 hours incubation
Experimental: Cell line: U937. Cell density: 0.5 Mio. cells/mL. Amount of medium: 3 mL/well.
3×0.5 mL suspensions of cells are prepared from each sample for flow cytometry measurement (non-fixed cells for viability determination, non-fixed cells and fixed cells for phospholipidosis analysis).
Immediately before measurement, 12.5 μL of the PI ready to use solution is added per sample (0.5 mL non-fixed cell suspension), which are kept on ice for another 15 min before measurement.
Cut-off gates for the fluorescence-dependent differentiation between life and dead cells are defined based on the analysis of cell culture medium plus vehicle exposed Control cells. Cells with a fluorescence lower than the cut-off are defined as viable. Absolute viability of a sample is the relation of viable cells to total cell number and expressed as percentage.
Immediately before measurement, 50 μL of the NR ready to use solution for live cell staining is added per sample (0.5 mL non-fixed cell suspension). Samples are kept on ice for another 5 min. […]
Both the Nile Red stained non-fixed cells as well as the Nile Red stained fixed cells are measured according the following procedure. […]
For each channel, absolute fluorescence intensity of a specific sample is correlated to the mean absolute fluorescence intensity of all cell culture medium plus vehicle exposed Control cells of the respective experiment. […]

[4] = male, Wistar(Han), plasma, 5 umol/kg

CO[C@H]1COCC[C@H]1NC1CCN(C(=O)c2ncnc(NC[C@H]3CCC[C@@H](c4ccc(C)cc4)O3)c2C)CC1 [compound I, (4-((3R,4R)-3-methoxytetrahydro-pyran-4-ylamino)piperidin-1-yl)(5-methyl-6-(((2R,6S)-6-(p-tolyl)tetrahydro-2H-pyran-2-yl)methylamino)pyrimidin-4-yl)methanone]
inhibition at 10 µM (hERG; at 10 μM): 12% | inhibition at 30 µM (hERG; at 30 μM): 28% | IC50 [1]: > 30 µM | MRTdisp [2]: 1.49 h | AUC(0-inf) [2, 4]: 1.49 µM·h | clearance [2, 4]: 56.1 mL/min/kg | Vd ([2]; male, Wistar(Han), plasma, 5 umol/kg, read-out: Vss): 5.04 L/kg | fraction unbound at 2 h, 1 μM [3]: 0.392 | Fraction unbound (plasma protein): 39.2% | lowest phospholipidogenic concentration (U937 cells): 200 µM | phospholipidogenic potential (in words) (U937 cells): propensitiy to be phospholipidogenic
